Numbers after ± are expanded uncertainties.
Conditions: Crystal; DTA

- Normal melting temperature: 117.00 ± 1.1 °C
SMILES: CNC(=O)c1cc(Oc2ccc(N)cc2)ccn1 [4-(4-aminophenoxy)-N-methylpyridine-2-carboxamide]

From the NIST ThermoML archive (doi:10.1021/acs.jced.8b00165)
